# Assay results: patent US9994848B2, “Pharmaceutical composition for preventing and teating endocrine disrupting chemicals-induced diseases and treating method using the same” (priority 2016, dated 2018)
# Legend:
# 3T3-L1 adipocytes [1] = assay: Oil Red O staining of 3T3-L1 adipocytes (adipocyte differentiation, total lipid content); assay type: cell-based, mouse; conditions: for oil red O staining (adipocyte differentiation): PCBs 20 μM during DMI treatment, 3T3-L1 adipocytes
# Procedure: (§1) 3T3-L1 mouse embryo fibroblasts, purchased from American Type Culture Collection (Manassas, Va., USA), were maintained in standard Dulbecco's modified Eagle's medium (DMEM; Gibco-BRL, Gaithersburg, Md., USA) supplemented with 10% fetal calf serum (FCS; Gibco-BRL, Gaithersburg, Md., USA) and 1% penicillin/streptomycin at 37° C. in a humidified 5% CO2 atmosphere. After confluence, 3T3-L1 cells were induced to differentiate using DMI induction medium (DMEM containing 10% FBS, 0.5 mM 3-isobutyl-1-methylxanthine, 0.5 μM dexamethasone, and 1 μg/ml insulin) for 2 days, followed by DMII (DMEM containing 10% FBS and 1 μg/ml insulin) for 2 days. The medium was subsequently replaced with fresh culture medium (DMEM with 10% FBS) every 2 days for 4 days. To define the effects of PCBs on adipocyte differentiation, we incubated preadipocytes with PCBs (PCB-77, PCB-118, PCB-138 or PCB-153) at equivalent concentrations (20 μM) during DMI treatment.
# (§2) For the siRNA-mediated down-regulation of Fsp27, Fsp27-specific siRNA and negative control siRNA were purchased from Bioneer (Daejeon, Korea) and used at a concentration of 20 nM. 3T3-L1 mouse embryo fibroblasts were transfected with either the siRNA molecule specific for Fsp27 or a negative control siRNA using Lipofectamine® RNAiMAX per the manufacturer's instructions.
# As previously described (Kim et al. 2015), cells were washed twice in phosphate buffered saline (PBS) and fixed for 1 h with 10% (w/v) formaldehyde in PBS. After two washes in 60% isopropyl alcohol, the cells were stained for 30 min in freshly diluted Oil Red O solution. Then, the stain was removed, and the cells were washed 4 times in water. After adding 100% 2-propanol at 500 nm, the absorbance of the eluted Oil Red O was measured in a spectrophotometer.
# aP2, PPAR and C/EBP = assay: mRNA and protein levels of adipocyte differentiation markers in vitro; assay type: cell-based, mouse
# Procedure: as §1, with “To define the effects of PCBs on adipocyte differentiation, we incubated preadipocytes with PCBs (PCB-77, PCB-118, PCB-138 or PCB-153) at equivalent concentrations (20 μM) during DMI treatment.” left out
# (§3) Cells and tissues were washed with ice-cold PBS, resuspended in 100 μL ice-cold RIPA buffer and incubated at 4° C. for 30 min. […] Immunostaining with antibodies was performed using the Super Signal West Pico (Thermo Scientific, Hudson, N.H., USA) enhanced chemiluminescence substrate and detected with LAS-3000 Plus (Fuji Photo Film, Tokyo, Japan). Quantification and normalization to actin or GAPDH control bands were performed using ImageJ 1.48q (NIH imaging software, Bethesda, Md., USA).
# C57BL/6 mice [2] = assay: PCB exposure of C57BL/6 mice: adipose mass, adipocyte size, body and liver weight; assay type: in vivo, mouse; conditions: 37.5 mg/kg ip, three injections, 6-week study
# Procedure: (§4) Adult male C57BL/6 mice (8-week-old, 22-25 g) were purchased from SamTako Bio-Korea (Osan, Korea). The animals were maintained in a temperature-controlled room (22° C.) on a 12:12-h light-dark cycle. All procedures were approved by the Committee on Animal Investigations at Dong-A University. 12-week-old mice were administered vehicle (corn oil), PCB-118 or PCB-138 (37.5 mg/kg) by intraperitoneal (ip) injection for a total of three injections (2, 3 and 5 weeks) during the 6-week study duration. Mice were randomly divided into 3 groups of 10 animals each.
# Epididymal white adipose tissues (eWAT) were fixed in 10% neutral buffered formalin and embedded in paraffin. Four-micrometer sections were prepared and stained with hematoxylin and eosin. The morphology of the […] was photographed using an Aperio ScanScope (Aperio Technologies, Vista, Calif., USA).
# 3T3-L1 adipocytes [3] = assay: Lipid droplet (LD) morphology and size in 3T3-L1 adipocytes (phase contrast, confocal microscopy); assay type: cell-based, mouse; conditions: for large LD formation: 3T3-L1 adipocytes treated with PCBs
# Procedure: as §1, §2
# Fsp27 and perilipin [4] = assay: Western blot of LD-associated proteins in 3T3-L1 adipocytes; assay type: cell-based, mouse; conditions: for protein expression levels of Fsp27 and perilipin: in vitro
# Procedure: as §1
# (§5) Cells and tissues were washed with ice-cold PBS, resuspended in 100 μL ice-cold RIPA buffer and incubated at 4° C. for 30 min. Lysates were centrifuged at 13,000 rpm for 30 min at 4° C. Equal amounts of proteins were subjected to 7.5-15% sodium dodecyl sulfate polyacrylamide gel electrophoresis. The proteins were transferred to a nitrocellulose membrane and reacted with each antibody. Immunostaining with antibodies was performed using the Super Signal West Pico (Thermo Scientific, Hudson, N.H., USA) enhanced chemiluminescence substrate and detected with LAS-3000 Plus (Fuji Photo Film, Tokyo, Japan). Quantification and normalization to actin or GAPDH control bands were performed using ImageJ 1.48q (NIH imaging software, Bethesda, Md., USA).
# Fsp27 and perilipin [5] = assay: Western blot of LD-associated proteins in PCB-administered mice; set-up: species or system mouse; conditions: in vivo
# Procedure: as §4, §5
# C57BL/6 mice [6] = assay: Blood glucose, plasma insulin, GTT and ITT in PCB-administered mice; assay type: in vivo, mouse; conditions: for blood glucose level / plasma insulin level: 37.5 mg/kg ip; for amount of hyperglycemia in GTT: glucose 1 mg/g ip after 16 h fast; for efficiency of insulin in ITT: insulin 0.75 U/kg ip after 16 h fast
# Procedure: as §4
# As previously described, intraperitoneal glucose tolerance tests (GTT) and insulin tolerance tests (ITT) were performed after the mice were fasted for 16 h. Plasma glucose concentrations were measured in tail blood using a GlucoDr Blood Glucose Test Strip (Hasuco, Seoul, South Korea) prior to and 30, 60, 90 and 120 minutes after intraperitoneally injecting a bolus of glucose (1 mg/g) for the GTT, and at the same time-points after intraperitoneally injecting 0.75 U/kg body weight insulin for the ITT.
# [7] = tested on: p-Akt (Ser473) and p-PI3K p85 (Tyr458); assay: Western blot of insulin-induced p-Akt and p-PI3K p85 in 3T3-L1 adipocytes; assay type: cell-based, mouse; conditions: for insulin-induced upregulation of p-Akt (Ser473) and p-PI3K p85 (Tyr458): 3T3-L1 adipocytes
# Procedure: as §1, §5
# IRS1 = IRS1 protein and mRNA level in 3T3-L1 adipocytes; assay type: cell-based, mouse; conditions: correlated with reversal of Fsp27 upregulation, Western blot
# Procedure: as §1, with “To define the effects of PCBs on adipocyte differentiation, we incubated preadipocytes with PCBs (PCB-77, PCB-118, PCB-138 or PCB-153) at equivalent concentrations (20 μM) during DMI treatment.” left out
# as §3
# adipocytes = assay: Accumulation of PCBs in adipocytes; assay type: cell-based
Structure (SMILES),oil red O staining (adipocyte differentiation) (3T3-L1 adipocytes [1]),"mRNA and protein levels of aP2, PPAR and C/EBP (markers of adipocyte differentiation) (aP2, PPAR and C/EBP)",adipocyte size (eWAT) (C57BL/6 mice [2]),adipose mass (C57BL/6 mice [2]),body weight (C57BL/6 mice [2]),liver weight (C57BL/6 mice [2]),large LD formation (3T3-L1 adipocytes [3]),protein expression levels of Fsp27 and perilipin (Fsp27 and perilipin [4]; 3T3-L1 adipocytes),protein expression levels of Fsp27 and perilipin (Fsp27 and perilipin [5]),blood glucose level (C57BL/6 mice [6]),plasma insulin level (C57BL/6 mice [6]),amount of hyperglycemia in GTT (C57BL/6 mice [6]),efficiency of insulin in ITT (C57BL/6 mice [6]),insulin-induced upregulation of p-Akt (Ser473) and p-PI3K p85 (Tyr458) [7],further results
"Clc1ccc(-c2ccc(Cl)c(Cl)c2)cc1Cl [PCB-77, 3,3′,4,4′-tetrachlorobiphenyl]",–,–,–,–,–,–,–,–,–,–,–,–,–,–,"effect on the adipocyte differentiation (3T3-L1 adipocytes [1]; compared to PCB-118 and PCB-138, 20 μM): meager effect"
"Clc1ccc(-c2cc(Cl)c(Cl)cc2Cl)cc1Cl [PCB-118, 2,3′,4,4′,5-pentachlorobiphenyl]",significantly increased,increased,increased,increased,without affecting,without affecting,promote large LD formation,increased,increased,increased,increased,increased,reduced,impaired,–
"Clc1cc(Cl)c(-c2ccc(Cl)c(Cl)c2Cl)cc1Cl [PCB-138, 2,2′,3,4,4′,5′-Hexachlorobiphenyl]",significantly increased,increased,increased,increased,without affecting,without affecting,promote large LD formation,increased,increased,increased,increased,increased,reduced,impaired,–
"CN(C)C(=N)N=C(N)N [metformin, reference compound]",–,–,–,–,–,–,–,–,–,–,–,–,–,–,"PCB-induced LD enlargement (3T3-L1 adipocytes [3]; PCB-treated 3T3-L1 adipocytes, phase contrast microscopy): reversed; expression level of Fsp27 (Fsp27 and perilipin [4]; 3T3-L1 adipocytes, Western blot): reduced; PCB-induced upregulation of Fsp27 expression (Fsp27 and perilipin [4]; PCB-treated 3T3-L1 adipocytes, Western blot): reversed; impairment by PCBs of the insulin-induced upregulation of p-Akt (Ser473) and p-PI3K p85 (Tyr458) ([7]; PCB-treated 3T3-L1 adipocytes): reversed; IRS1 downregulation in adipocytes exposed to PCBs (IRS1): reversal; accumulation of PCB-118 and PCB-138 in adipocytes (adipocytes): reverted"
